# Tests used:
# [1] = target: T1, ABL1(H396P)-nonphosphorylated (Homo sapiens, UniProt P00519, H396P); assay: KinomeScan; type: binding; conditions: 1 μM
# T1 construct: purchased DiscoverX (KINOMEscan)
# ABL1-nonphosphorylated = target: T2, ABL1-nonphosphorylated (Homo sapiens, UniProt P00519); assay: KinomeScan; type: binding; conditions: 1 μM
# T2 construct: purchased DiscoverX (KINOMEscan)
# CAMK1 = target: T3, CAMK1 (Homo sapiens, UniProt Q14012); assay: KinomeScan; type: binding; conditions: 1 μM
# T3 construct: purchased DiscoverX (KINOMEscan)
# CLK2 = target: T4, CLK2 (Homo sapiens, UniProt P49760); assay: KinomeScan; type: binding; conditions: 1 μM
# T4 construct: purchased DiscoverX (KINOMEscan)
# T4 sequence (P49760 whole entry): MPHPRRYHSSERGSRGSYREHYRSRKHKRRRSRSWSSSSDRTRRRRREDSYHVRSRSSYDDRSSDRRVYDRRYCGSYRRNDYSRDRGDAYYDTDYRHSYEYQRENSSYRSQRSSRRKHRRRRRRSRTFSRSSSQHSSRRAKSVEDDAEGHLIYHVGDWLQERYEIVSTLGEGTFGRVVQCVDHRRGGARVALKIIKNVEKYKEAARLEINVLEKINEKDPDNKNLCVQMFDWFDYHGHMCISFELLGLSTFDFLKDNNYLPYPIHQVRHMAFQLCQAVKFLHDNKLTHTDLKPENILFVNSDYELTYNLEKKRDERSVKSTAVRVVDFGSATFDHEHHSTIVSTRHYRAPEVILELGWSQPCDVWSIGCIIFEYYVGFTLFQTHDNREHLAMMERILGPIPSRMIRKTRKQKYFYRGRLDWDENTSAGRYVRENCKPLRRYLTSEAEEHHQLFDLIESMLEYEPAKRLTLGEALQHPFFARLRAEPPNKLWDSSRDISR
# EGFR(L858R) = target: T5, EGFR(L858R) (Homo sapiens, UniProt P00533, L858R); assay: KinomeScan; type: binding; conditions: 1 μM
# T5 construct: purchased DiscoverX (KINOMEscan)
# ICK = target: T6, ICK (Homo sapiens, UniProt Q9UPZ9); assay: KinomeScan; type: binding; conditions: 1 μM
# T6 construct: purchased DiscoverX (KINOMEscan)
# MARK3 = target: T7, MARK3 (Homo sapiens, UniProt P27448); assay: KinomeScan; type: binding; conditions: 1 μM
# T7 construct: purchased DiscoverX (KINOMEscan)
# T7 sequence (P27448 whole entry): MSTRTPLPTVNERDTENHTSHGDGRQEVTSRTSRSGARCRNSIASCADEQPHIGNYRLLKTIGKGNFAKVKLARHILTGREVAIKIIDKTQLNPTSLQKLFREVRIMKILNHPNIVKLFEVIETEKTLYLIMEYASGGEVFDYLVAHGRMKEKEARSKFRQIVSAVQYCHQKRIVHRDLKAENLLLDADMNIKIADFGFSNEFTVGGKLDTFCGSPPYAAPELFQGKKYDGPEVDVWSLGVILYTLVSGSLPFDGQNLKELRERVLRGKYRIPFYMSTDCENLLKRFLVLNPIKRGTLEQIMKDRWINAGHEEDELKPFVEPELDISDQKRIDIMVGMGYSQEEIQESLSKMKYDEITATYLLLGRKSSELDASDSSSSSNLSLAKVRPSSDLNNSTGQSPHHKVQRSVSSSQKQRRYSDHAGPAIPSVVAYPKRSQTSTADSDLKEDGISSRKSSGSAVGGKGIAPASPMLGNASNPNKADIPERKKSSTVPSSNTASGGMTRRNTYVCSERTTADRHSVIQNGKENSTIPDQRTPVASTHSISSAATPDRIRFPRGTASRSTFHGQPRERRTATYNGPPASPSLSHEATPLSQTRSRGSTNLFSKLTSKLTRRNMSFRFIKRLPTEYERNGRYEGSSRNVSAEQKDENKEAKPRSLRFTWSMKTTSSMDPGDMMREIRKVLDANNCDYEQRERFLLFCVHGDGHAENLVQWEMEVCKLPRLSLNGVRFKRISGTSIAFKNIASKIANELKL
# MEK5 = target: T8, MEK5 (Homo sapiens, UniProt Q13163); assay: KinomeScan; type: binding; conditions: 1 μM
# T8 construct: purchased DiscoverX (KINOMEscan)
# MYO3B = target: T9, MYO3B (Homo sapiens, UniProt Q8WXR4); assay: KinomeScan; type: binding; conditions: 1 μM
# T9 construct: purchased DiscoverX (KINOMEscan)
# T9 sequence (Q8WXR4 whole entry): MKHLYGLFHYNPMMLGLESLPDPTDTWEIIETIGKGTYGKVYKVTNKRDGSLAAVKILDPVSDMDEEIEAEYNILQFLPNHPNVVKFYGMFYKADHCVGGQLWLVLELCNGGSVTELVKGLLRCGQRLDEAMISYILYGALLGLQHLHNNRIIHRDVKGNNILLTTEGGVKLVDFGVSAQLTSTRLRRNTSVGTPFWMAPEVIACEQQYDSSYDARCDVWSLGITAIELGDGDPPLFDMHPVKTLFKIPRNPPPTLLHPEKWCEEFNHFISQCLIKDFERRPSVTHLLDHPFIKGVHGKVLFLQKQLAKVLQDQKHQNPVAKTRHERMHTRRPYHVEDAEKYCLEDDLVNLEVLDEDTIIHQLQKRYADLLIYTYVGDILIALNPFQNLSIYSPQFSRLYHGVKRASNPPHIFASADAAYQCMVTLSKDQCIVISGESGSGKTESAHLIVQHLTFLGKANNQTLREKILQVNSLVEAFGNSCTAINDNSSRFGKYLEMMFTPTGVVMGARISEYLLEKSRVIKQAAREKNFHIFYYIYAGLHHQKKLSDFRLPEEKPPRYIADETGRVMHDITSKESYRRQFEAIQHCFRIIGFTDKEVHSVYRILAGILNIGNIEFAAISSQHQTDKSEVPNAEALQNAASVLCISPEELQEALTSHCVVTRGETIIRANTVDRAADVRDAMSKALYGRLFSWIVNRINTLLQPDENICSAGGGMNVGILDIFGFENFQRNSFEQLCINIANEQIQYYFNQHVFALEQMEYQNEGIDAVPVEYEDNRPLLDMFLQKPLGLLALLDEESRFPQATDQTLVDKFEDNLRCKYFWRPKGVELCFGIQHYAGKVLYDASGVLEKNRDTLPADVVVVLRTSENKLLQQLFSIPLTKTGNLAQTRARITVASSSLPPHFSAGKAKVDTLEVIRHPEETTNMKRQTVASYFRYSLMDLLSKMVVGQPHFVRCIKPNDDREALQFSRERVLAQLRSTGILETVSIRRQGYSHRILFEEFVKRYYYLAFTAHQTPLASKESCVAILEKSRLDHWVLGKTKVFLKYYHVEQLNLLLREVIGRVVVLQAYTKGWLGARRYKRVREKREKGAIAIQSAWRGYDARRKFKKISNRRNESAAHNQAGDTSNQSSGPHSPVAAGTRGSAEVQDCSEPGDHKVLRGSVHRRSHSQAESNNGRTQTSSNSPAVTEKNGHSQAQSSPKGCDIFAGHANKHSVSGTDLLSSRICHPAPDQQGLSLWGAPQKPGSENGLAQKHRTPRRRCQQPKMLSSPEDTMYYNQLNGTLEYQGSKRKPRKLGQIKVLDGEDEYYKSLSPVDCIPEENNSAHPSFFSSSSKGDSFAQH
# NEK9 = target: T10, NEK9 (Homo sapiens, UniProt Q8TD19); assay: KinomeScan; type: binding; conditions: 1 μM
# T10 construct: purchased DiscoverX (KINOMEscan)
# T10 sequence (Q8TD19 whole entry): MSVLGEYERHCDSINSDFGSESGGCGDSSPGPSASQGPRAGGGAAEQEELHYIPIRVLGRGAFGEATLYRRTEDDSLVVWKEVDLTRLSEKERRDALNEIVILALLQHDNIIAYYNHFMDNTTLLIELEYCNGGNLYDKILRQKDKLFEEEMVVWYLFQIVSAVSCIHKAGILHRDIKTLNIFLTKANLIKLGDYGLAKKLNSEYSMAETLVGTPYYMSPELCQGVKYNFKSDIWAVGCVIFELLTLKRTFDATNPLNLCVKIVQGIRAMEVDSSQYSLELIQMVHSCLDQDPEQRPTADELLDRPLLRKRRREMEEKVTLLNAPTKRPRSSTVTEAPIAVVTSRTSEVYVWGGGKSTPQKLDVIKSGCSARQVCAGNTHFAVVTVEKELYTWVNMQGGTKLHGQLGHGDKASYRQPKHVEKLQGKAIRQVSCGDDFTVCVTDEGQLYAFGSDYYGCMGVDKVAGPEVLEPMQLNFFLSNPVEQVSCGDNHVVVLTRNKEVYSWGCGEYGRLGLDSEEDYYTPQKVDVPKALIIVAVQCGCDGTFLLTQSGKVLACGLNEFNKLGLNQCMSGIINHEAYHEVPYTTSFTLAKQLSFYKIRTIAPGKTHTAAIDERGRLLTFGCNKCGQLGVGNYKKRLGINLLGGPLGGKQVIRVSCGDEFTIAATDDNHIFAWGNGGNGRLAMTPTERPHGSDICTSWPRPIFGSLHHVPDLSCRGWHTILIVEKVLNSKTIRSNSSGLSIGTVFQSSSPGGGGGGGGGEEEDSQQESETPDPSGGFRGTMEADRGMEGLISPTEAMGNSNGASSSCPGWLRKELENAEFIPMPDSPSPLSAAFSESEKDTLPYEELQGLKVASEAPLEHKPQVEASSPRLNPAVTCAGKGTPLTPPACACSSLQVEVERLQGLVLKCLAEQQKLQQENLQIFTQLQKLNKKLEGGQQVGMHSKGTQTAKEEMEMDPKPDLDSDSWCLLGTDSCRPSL
# SIK = target: T11, SIK (Homo sapiens, UniProt P57059); assay: KinomeScan; type: binding; conditions: 1 μM
# T11 construct: purchased DiscoverX (KINOMEscan)
# T11 sequence (P57059 whole entry): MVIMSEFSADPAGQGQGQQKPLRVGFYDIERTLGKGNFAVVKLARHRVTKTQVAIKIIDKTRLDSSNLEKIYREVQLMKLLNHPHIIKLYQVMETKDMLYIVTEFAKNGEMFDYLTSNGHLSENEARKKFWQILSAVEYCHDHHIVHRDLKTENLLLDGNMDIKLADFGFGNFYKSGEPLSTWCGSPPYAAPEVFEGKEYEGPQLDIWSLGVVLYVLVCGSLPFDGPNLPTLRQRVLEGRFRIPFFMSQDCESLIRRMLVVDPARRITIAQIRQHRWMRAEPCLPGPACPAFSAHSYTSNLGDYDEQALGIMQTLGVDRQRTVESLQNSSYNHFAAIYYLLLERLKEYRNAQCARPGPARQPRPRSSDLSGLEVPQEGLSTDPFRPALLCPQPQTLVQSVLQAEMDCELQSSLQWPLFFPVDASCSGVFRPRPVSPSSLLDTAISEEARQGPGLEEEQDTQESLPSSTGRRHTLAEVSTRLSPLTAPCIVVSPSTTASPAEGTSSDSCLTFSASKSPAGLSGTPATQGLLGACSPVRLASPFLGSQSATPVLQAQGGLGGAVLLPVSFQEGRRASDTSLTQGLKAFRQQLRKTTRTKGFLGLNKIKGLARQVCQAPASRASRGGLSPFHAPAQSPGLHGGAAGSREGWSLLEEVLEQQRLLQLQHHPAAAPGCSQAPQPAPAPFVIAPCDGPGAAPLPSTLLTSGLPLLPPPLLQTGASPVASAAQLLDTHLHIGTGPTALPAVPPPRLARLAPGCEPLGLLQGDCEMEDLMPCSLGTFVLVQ
# CLK1 = CLK1 (Homo sapiens, UniProt P49759); assay: KinomeScan; type: binding; conditions: 1 μM
# Chain of CLK1 (P49759 whole entry): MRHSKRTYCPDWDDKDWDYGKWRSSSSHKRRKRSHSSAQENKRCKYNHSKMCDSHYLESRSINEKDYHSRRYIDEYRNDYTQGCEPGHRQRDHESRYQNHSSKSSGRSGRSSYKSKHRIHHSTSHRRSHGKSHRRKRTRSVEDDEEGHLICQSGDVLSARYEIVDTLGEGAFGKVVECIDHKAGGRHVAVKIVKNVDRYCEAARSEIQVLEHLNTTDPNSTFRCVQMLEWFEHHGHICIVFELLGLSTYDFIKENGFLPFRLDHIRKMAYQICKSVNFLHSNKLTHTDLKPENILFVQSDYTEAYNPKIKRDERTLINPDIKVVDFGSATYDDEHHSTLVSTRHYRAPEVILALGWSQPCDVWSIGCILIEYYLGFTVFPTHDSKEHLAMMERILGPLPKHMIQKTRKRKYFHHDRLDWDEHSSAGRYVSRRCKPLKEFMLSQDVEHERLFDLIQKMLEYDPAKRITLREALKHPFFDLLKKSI
# Procedure: For most assays, kinase-tagged T7 phage strains were grown in parallel in 24-well blocks in an E. coli host derived from the BL21 strain. E. coli were grown to log-phase and infected with T7 phage from a frozen stock (multiplicity of infection ~0.1) and incubated with shaking at 32 °C until lysis (~90 min). The lysates were centrifuged (6000× g) and filtered (0.2 μm) to remove cell debris. The remaining kinases were produced in HEK-293 cells and subsequently tagged with DNA for qPCR detection. […] The liganded beads were blocked with excess biotin and washed with blocking buffer (SeaBlock (Pierce, ThermoFisher Scientific, Illkirch, France), 1% BSA, 0.05% Tween 20, 1 mM DTT) to remove unbound ligand and to reduce non-specific phage binding. […] An 11-point threefold serial dilution of each test compound was prepared in 100% DMSO at 100× final test concentration which and subsequently diluted to 1× in the assay. All reactions were performed in polystyrene 96-well plates in a final volume of 0.135 mL. […] The kinase concentration in the eluates was measured by qPCR.
# DYRK1A = DYRK1A (Homo sapiens, UniProt Q13627); assay: Thr286-cyclin D1 phosphorylation in SH-SY5Y cells; type: cell-based; set-up: expressed in transfected cells; host or cells: SH-SY5Y neuroblastoma cells, doxycycline-inducible (gift from Dr. Walter Becker); conditions: 30 μM, 24 h
# Procedure: Cell treatments. SH-SY5Y cells conditionally expressing human DYRK1A [36], under the control of doxycycline (gift from Dr. Walter Becker) were cultured Dulbecco’s Modified Eagle Medium (DMEM): Nutrient Mixture F-12 (DMEM/F-12, Gibco, c/o Invitrogen, Saint Aubin, France) containing 1% Penicillin Streptomycin mixture (Gibco) and 10% fetal bovine serum (FBS, Gibco) in a humidified, 5% CO2 incubator at 37 °C. Cells were split routinely once a week. They were first rinsed with phosphate buffered saline (PBS, Gibco) and detached from the plate bottom using 2 mL Trypsin (Gibco) at 37 °C for 3–4 min. Eight mL of fresh medium were added to the cell suspension and the mix was centrifuged for 3 min at 1000 rpm. The cell pellet was resuspended in fresh medium before seeding (½ dilution) in new 150 mm plates. First, 1 μg/mL doxycycline was used to induce DYRK1A expression and cells were incubated 24 h in a humidified, 5% CO2 incubator at 37 °C. Drugs (0, 3 or 30 μM final) were then added with a final concentration of 0.1% DMSO and cells were incubated for an additional 24 h in a humidified, 5% CO2 incubator at 37 °C. Afterwards, cells were scrapped in medium and centrifuged for 5 min at 3000 rpm at 4 °C. The pellets were washed twice with PBS, centrifuge for 5 min at 10,000 g at 4 °C, snap-frozen in liquid nitrogen and kept at −80 °C.
# Western blot analysis. […]
smiles,measurement,setting,value
COc1cc(/C=C2\N=C(N)NC2=O)ccc1O [Polyandrocarpamine A],Score,[1],95
same,Score,ABL1-nonphosphorylated,90
same,Score,CAMK1,100
same,Score,CLK2,45
same,Score,EGFR(L858R),93
same,Score,ICK,100
same,Score,MARK3,100
same,Score,MEK5,78
same,Score,MYO3B,88
same,Score,NEK9,100
same,Score,SIK,100
same,Score,CLK1,32
same,Phosphorylation of cyclin D1 at Thr286,DYRK1A,partially inhibited

# From publication PMC5666424, “Marine-Derived 2-Aminoimidazolone Alkaloids. Leucettamine B-Related Polyandrocarpamines Inhibit Mammalian and Protozoan DYRK & CLK Kinases” (Marine Drugs, 2017)
